Experimental data from the supplement of paper PMC10307832.

Key:
Assay in all cases: relative viability (nuclei count vs DMSO), 5 days (fraction); higher = more cells survive
PC-14 = system: PC-14
Procedure, shortened: (§1)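 Lung cancer cell lines in 1536-well plates got either a single drug or a fixed anchor-drug dose together with five library-drug doses (not always all listed) in √10 steps, by pin tool, on the day after seeding. Nuclei were counted after 5 days, and relative viability is the treated-to-vehicle ratio of nuclei counts. Values are medians of duplicate plates.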

NCI-H441 = system: NCI-H441
Procedure, shortened: as §1

LU99A = system: LU99A
Procedure, shortened: as §1

COR-L23 = system: COR-L23
Procedure, shortened: as §1

HCC-366 = system: HCC-366
Procedure, shortened: as §1

NCI-H1437 = system: NCI-H1437
Procedure, shortened: as §1

NCI-H2009 = system: NCI-H2009
Procedure, shortened: as §1

COR-L 105 = system: COR-L 105
Procedure, shortened: as §1

NCI-H1666 = system: NCI-H1666
Procedure, shortened: as §1

NCI-H1650 = system: NCI-H1650
Procedure, shortened: as §1

EKVX = system: EKVX
Procedure, shortened: as §1

BEN = system: BEN
Procedure, shortened: as §1

NCI-H727 = system: NCI-H727
Procedure, shortened: as §1

LK-2 = system: LK-2
Procedure, shortened: as §1

HARA = system: HARA
Procedure, shortened: as §1

NCI-H2023 = system: NCI-H2023
Procedure, shortened: as §1

201T = system: 201T
Procedure, shortened: as §1

NCI-H838 = system: NCI-H838
Procedure, shortened: as §1

NCI-H3122 = system: NCI-H3122
Procedure, shortened: as §1

NCI-H2170 = system: NCI-H2170
Procedure, shortened: as §1

CAL-12T = system: CAL-12T
Procedure, shortened: as §1

SMILES: COc1cc(N2CCC(C(N)=O)CC2)ccc1Nc1nc(N)c(Cl)c(Nc2ccccc2S(=O)(=O)C(C)C)n1 [HG-5-88-01] + CC1(C)CCC(c2ccc(Cl)cc2)=C(CN2CCN(c3ccc(C(=O)NS(=O)(=O)c4ccc(N[C@H](CCN5CCOCC5)CSc5ccccc5)c(S(=O)(=O)C(F)(F)F)c4)cc3)CC2)C1 [Navitoclax] (partner 0.5 µM)
- relative viability (PC-14; first compound 0.04 µM): 0.953
- relative viability (PC-14; first compound 0.1265 µM): 1.05
- relative viability (PC-14; first compound 0.4 µM): 0.995
- relative viability (PC-14; first compound 1.265 µM): 1.12
- relative viability (PC-14; first compound 4 µM): 0.272
- relative viability (NCI-H441; first compound 0.04 µM): 0.661
- relative viability (NCI-H441; first compound 0.1265 µM): 0.675
- relative viability (NCI-H441; first compound 0.4 µM): 0.714
- relative viability (NCI-H441; first compound 1.265 µM): 0.609
- relative viability (NCI-H441; first compound 4 µM): 0.679
- relative viability (LU99A; first compound 0.04 µM): 0.781
- relative viability (LU99A; first compound 0.1265 µM): 0.96
- relative viability (LU99A; first compound 0.4 µM): 0.75
- relative viability (LU99A; first compound 1.265 µM): 0.764
- relative viability (LU99A; first compound 4 µM): 0.996
- relative viability (COR-L23; first compound 0.04 µM): 0.936
- relative viability (COR-L23; first compound 0.1265 µM): 1
- relative viability (COR-L23; first compound 0.4 µM): 0.998
- relative viability (COR-L23; first compound 1.265 µM): 0.883
- relative viability (COR-L23; first compound 4 µM): 0.98
- relative viability (HCC-366; first compound 0.04 µM): 0.952
- relative viability (HCC-366; first compound 0.1265 µM): 1.04
- relative viability (HCC-366; first compound 0.4 µM): 0.79
- relative viability (HCC-366; first compound 1.265 µM): 1.02
- relative viability (HCC-366; first compound 4 µM): 1.29
- relative viability (NCI-H1437; first compound 0.04 µM): 1.1
- relative viability (NCI-H1437; first compound 0.1265 µM): 1.11
- relative viability (NCI-H1437; first compound 0.4 µM): 1.05
- relative viability (NCI-H1437; first compound 1.265 µM): 1.04
- relative viability (NCI-H1437; first compound 4 µM): 1.02
- relative viability (NCI-H2009; first compound 0.04 µM): 1.2
- relative viability (NCI-H2009; first compound 0.1265 µM): 1.32
- relative viability (NCI-H2009; first compound 0.4 µM): 1.15
- relative viability (NCI-H2009; first compound 1.265 µM): 1.06
- relative viability (NCI-H2009; first compound 4 µM): 1.15
- relative viability (COR-L 105; first compound 0.04 µM): 0.644
- relative viability (COR-L 105; first compound 0.1265 µM): 0.833
- relative viability (COR-L 105; first compound 0.4 µM): 0.838
- relative viability (COR-L 105; first compound 1.265 µM): 0.645
- relative viability (COR-L 105; first compound 4 µM): 0.809
- relative viability (NCI-H1666; first compound 0.04 µM): 1.14
- relative viability (NCI-H1666; first compound 0.1265 µM): 1.01
- relative viability (NCI-H1666; first compound 0.4 µM): 1.01
- relative viability (NCI-H1666; first compound 1.265 µM): 0.877
- relative viability (NCI-H1666; first compound 4 µM): 0.603
- relative viability (NCI-H1650; first compound 0.04 µM): 1.54
- relative viability (NCI-H1650; first compound 0.1265 µM): 1.32
- relative viability (NCI-H1650; first compound 0.4 µM): 1.26
- relative viability (NCI-H1650; first compound 1.265 µM): 0.918
- relative viability (NCI-H1650; first compound 4 µM): 1.07
- relative viability (EKVX; first compound 0.04 µM): 1.03
- relative viability (EKVX; first compound 0.1265 µM): 0.952
- relative viability (EKVX; first compound 0.4 µM): 0.634
- relative viability (EKVX; first compound 4 µM): 0.839
- relative viability (BEN; first compound 0.04 µM): 0.0887
- relative viability (BEN; first compound 0.1265 µM): 0.0551
- relative viability (BEN; first compound 0.4 µM): 0.0596
- relative viability (BEN; first compound 1.265 µM): 0.0568
- relative viability (BEN; first compound 4 µM): 0.0605
- relative viability (NCI-H727; first compound 0.04 µM): 0.532
- relative viability (NCI-H727; first compound 0.1265 µM): 0.416
- relative viability (NCI-H727; first compound 0.4 µM): 0.469
- relative viability (NCI-H727; first compound 1.265 µM): 0.224
- relative viability (NCI-H727; first compound 4 µM): 0.0929
- relative viability (LK-2; first compound 0.04 µM): 0.872
- relative viability (LK-2; first compound 0.1265 µM): 1.03
- relative viability (LK-2; first compound 0.4 µM): 0.805
- relative viability (LK-2; first compound 1.265 µM): 0.377
- relative viability (LK-2; first compound 4 µM): 0.541
- relative viability (HARA; first compound 0.04 µM): 1.16
- relative viability (HARA; first compound 0.1265 µM): 1.14
- relative viability (HARA; first compound 0.4 µM): 1.13
- relative viability (HARA; first compound 1.265 µM): 1.19
- relative viability (HARA; first compound 4 µM): 1.18
- relative viability (NCI-H2023; first compound 0.04 µM): 1.01
- relative viability (NCI-H2023; first compound 0.1265 µM): 0.94
- relative viability (NCI-H2023; first compound 0.4 µM): 0.934
- relative viability (NCI-H2023; first compound 1.265 µM): 0.787
- relative viability (NCI-H2023; first compound 4 µM): 0.804
- relative viability (201T; first compound 0.04 µM): 1.22
- relative viability (201T; first compound 0.1265 µM): 1.22
- relative viability (201T; first compound 0.4 µM): 1.28
- relative viability (201T; first compound 1.265 µM): 1.18
- relative viability (201T; first compound 4 µM): 1.17
- relative viability (NCI-H838; first compound 0.04 µM): 1.09
- relative viability (NCI-H838; first compound 0.1265 µM): 1.2
- relative viability (NCI-H838; first compound 0.4 µM): 1.07
- relative viability (NCI-H838; first compound 1.265 µM): 0.973
- relative viability (NCI-H838; first compound 4 µM): 0.904
- relative viability (NCI-H3122; first compound 0.04 µM): 0.905
- relative viability (NCI-H3122; first compound 0.1265 µM): 0.611
- relative viability (NCI-H3122; first compound 0.4 µM): 0.444
- relative viability (NCI-H3122; first compound 1.265 µM): 0.198
- relative viability (NCI-H3122; first compound 4 µM): 0.255
- relative viability (NCI-H2170; first compound 0.04 µM): 0.554
- relative viability (NCI-H2170; first compound 0.1265 µM): 0.574
- relative viability (NCI-H2170; first compound 0.4 µM): 0.674
- relative viability (NCI-H2170; first compound 1.265 µM): 0.311
- relative viability (NCI-H2170; first compound 4 µM): 0.73
- relative viability (CAL-12T; first compound 0.04 µM): 1.26
- relative viability (CAL-12T; first compound 0.1265 µM): 1.15
- relative viability (CAL-12T; first compound 0.4 µM): 1.18
- relative viability (CAL-12T; first compound 1.265 µM): 1.14
- relative viability (CAL-12T; first compound 4 µM): 1.02
